Source: PubChem BioAssay (NCI)
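Step 1: Grow cells in 96-well plates. Step 2: Expose to compound for 48 hours at 5 concentrations. Step 3: Interpolate endpoints linearly; if unreached, use highest concentration. The concentration for 50% growth inhibition is given as GI50. Definition used: TGI = concentration required for complete inhibition of growth.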

Key:
Assay in all cases: NCI anticancer screen, dose series, 48 h
K-562 leukemia = tested on: K-562 leukemia
HT29 colon = tested on: HT29 colon
SNB-75 CNS = tested on: SNB-75 CNS
OVCAR-5 ovarian = tested on: OVCAR-5 ovarian
HCT-15 colon = tested on: HCT-15 colon
KM12 colon = tested on: KM12 colon
HS 578T breast = tested on: HS 578T breast
UACC-257 melanoma = tested on: UACC-257 melanoma
MALME-3M melanoma = tested on: MALME-3M melanoma
SK-OV-3 ovarian = tested on: SK-OV-3 ovarian
HCC-2998 colon = tested on: HCC-2998 colon
RPMI-8226 leukemia = tested on: RPMI-8226 leukemia
HL-60(TB) leukemia = tested on: HL-60(TB) leukemia
NCI-H226 lung = tested on: NCI-H226 lung
IGROV1 ovarian = tested on: IGROV1 ovarian
SNB-19 CNS = tested on: SNB-19 CNS
MCF7 breast = tested on: MCF7 breast
NCI-H460 lung = tested on: NCI-H460 lung
UACC-62 melanoma = tested on: UACC-62 melanoma
SK-MEL-2 melanoma = tested on: SK-MEL-2 melanoma
UO-31 renal = tested on: UO-31 renal
NCI/ADR-RES ovarian = tested on: NCI/ADR-RES ovarian
DU-145 prostate = tested on: DU-145 prostate
HCT-116 colon = tested on: HCT-116 colon
PC-3 prostate = tested on: PC-3 prostate
SR leukemia = tested on: SR leukemia
COLO 205 colon = tested on: COLO 205 colon
SF-268 CNS = tested on: SF-268 CNS
BT-549 breast = tested on: BT-549 breast
U251 CNS = tested on: U251 CNS
T-47D breast = tested on: T-47D breast
SK-MEL-5 melanoma = tested on: SK-MEL-5 melanoma
OVCAR-8 ovarian = tested on: OVCAR-8 ovarian
ACHN renal = tested on: ACHN renal
CAKI-1 renal = tested on: CAKI-1 renal
TK-10 renal = tested on: TK-10 renal
786-0 renal = tested on: 786-0 renal
RXF 393 renal = tested on: RXF 393 renal
CCRF-CEM leukemia = tested on: CCRF-CEM leukemia
SN12C renal = tested on: SN12C renal
NCI-H23 lung = tested on: NCI-H23 lung
LOX IMVI melanoma = tested on: LOX IMVI melanoma
MDA-MB-231 breast = tested on: MDA-MB-231 breast
SF-539 CNS = tested on: SF-539 CNS
EKVX NSCLC = tested on: EKVX NSCLC
HOP-62 NSCLC = tested on: HOP-62 NSCLC
SK-MEL-28 melanoma = tested on: SK-MEL-28 melanoma
OVCAR-3 ovarian = tested on: OVCAR-3 ovarian
SW-620 colon = tested on: SW-620 colon
SF-295 CNS = tested on: SF-295 CNS
HOP-92 NSCLC = tested on: HOP-92 NSCLC
A498 renal = tested on: A498 renal
A549 NSCLC = tested on: A549 NSCLC
OVCAR-4 ovarian = tested on: OVCAR-4 ovarian
M14 melanoma = tested on: M14 melanoma
NCI-H522 lung = tested on: NCI-H522 lung
MDA-MB-435 = tested on: MDA-MB-435
MOLT-4 leukemia = tested on: MOLT-4 leukemia

Cc1c(C#N)c2nnn(-c3cccc(Cl)c3)c(=O)n2c1-c1ccccc1
TGI (K-562 leukemia): 4.03 µM | TGI (HT29 colon): 9.18 µM | TGI (SNB-75 CNS): 7.76 µM | TGI (OVCAR-5 ovarian): > 100 µM | TGI (HCT-15 colon): > 100 µM | TGI (KM12 colon): 14.9 µM | TGI (HS 578T breast): > 100 µM | TGI (UACC-257 melanoma): > 100 µM | TGI (MALME-3M melanoma): > 100 µM | TGI (SK-OV-3 ovarian): > 100 µM | TGI (HCC-2998 colon): 18.2 µM | TGI (RPMI-8226 leukemia): 2.61 µM | TGI (HL-60(TB) leukemia): > 100 µM | TGI (NCI-H226 lung): 12.6 µM | TGI (IGROV1 ovarian): > 100 µM | TGI (SNB-19 CNS): > 100 µM | TGI (MCF7 breast): 35.4 µM | TGI (NCI-H460 lung): > 100 µM | TGI (UACC-62 melanoma): 36 µM | TGI (SK-MEL-2 melanoma): 8.95 µM | TGI (UO-31 renal): > 100 µM | TGI (NCI/ADR-RES ovarian): > 100 µM | TGI (DU-145 prostate): 40.4 µM | TGI (HCT-116 colon): 38.2 µM | TGI (PC-3 prostate): 9.91 µM | TGI (SR leukemia): 2.69 µM | TGI (COLO 205 colon): 2.35 µM | TGI (SF-268 CNS): > 100 µM | TGI (BT-549 breast): > 100 µM | TGI (U251 CNS): 11.1 µM | TGI (T-47D breast): 53.9 µM | TGI (SK-MEL-5 melanoma): 19.2 µM | TGI (OVCAR-8 ovarian): > 100 µM | TGI (ACHN renal): > 100 µM | TGI (CAKI-1 renal): > 100 µM | TGI (TK-10 renal): > 100 µM | TGI (786-0 renal): > 100 µM | TGI (RXF 393 renal): 5.84 µM | TGI (CCRF-CEM leukemia): > 100 µM | TGI (SN12C renal): 62 µM | TGI (NCI-H23 lung): > 100 µM | TGI (LOX IMVI melanoma): > 100 µM | TGI (MDA-MB-231 breast): 6.1 µM | TGI (SF-539 CNS): 10.4 µM | TGI (EKVX NSCLC): > 100 µM | TGI (HOP-62 NSCLC): 7.81 µM | TGI (SK-MEL-28 melanoma): > 100 µM | TGI (OVCAR-3 ovarian): 5.59 µM | TGI (SW-620 colon): > 100 µM | TGI (SF-295 CNS): 4.98 µM | TGI (HOP-92 NSCLC): > 100 µM | TGI (A498 renal): 13 µM | TGI (A549 NSCLC): > 100 µM | TGI (OVCAR-4 ovarian): > 100 µM | TGI (M14 melanoma): > 100 µM | TGI (NCI-H522 lung): 8.59 µM

O=C(Nc1cccc(-n2ccc3c(NC(=O)c4ccccc4)ncnc32)c1)Nc1ccc(Cl)c(C(F)(F)F)c1
GI50 (K-562 leukemia): 1.61 µM | TGI (K-562 leukemia): 50 µM | GI50 (HT29 colon): 1.87 µM | TGI (HT29 colon): 7.87 µM | GI50 (SNB-75 CNS): 0.954 µM | TGI (SNB-75 CNS): 9.15 µM | GI50 (OVCAR-5 ovarian): 2.38 µM | TGI (OVCAR-5 ovarian): 9.69 µM | GI50 (HCT-15 colon): 2.51 µM | TGI (HCT-15 colon): 10.2 µM | GI50 (KM12 colon): 1.95 µM | TGI (KM12 colon): 8.16 µM | GI50 (HS 578T breast): 2.55 µM | TGI (HS 578T breast): 22.6 µM | GI50 (UACC-257 melanoma): 2.67 µM | TGI (UACC-257 melanoma): 8.43 µM | GI50 (MALME-3M melanoma): 1.99 µM | TGI (MALME-3M melanoma): 9.01 µM | GI50 (MDA-MB-435): 1.44 µM | TGI (MDA-MB-435): 5.6 µM | GI50 (HCC-2998 colon): 4.2 µM | TGI (HCC-2998 colon): 14.9 µM | GI50 (RPMI-8226 leukemia): 1.02 µM | TGI (RPMI-8226 leukemia): 2.8 µM | GI50 (HL-60(TB) leukemia): 1.87 µM | TGI (HL-60(TB) leukemia): 5.28 µM | GI50 (NCI-H226 lung): 5.27 µM | TGI (NCI-H226 lung): 11.5 µM | GI50 (IGROV1 ovarian): 2.92 µM | TGI (IGROV1 ovarian): 17.1 µM | GI50 (SNB-19 CNS): 4.41 µM | TGI (SNB-19 CNS): 10.8 µM | GI50 (MCF7 breast): 1.49 µM | TGI (MCF7 breast): 6.14 µM | GI50 (NCI-H460 lung): 2.13 µM | TGI (NCI-H460 lung): 9.88 µM | GI50 (UACC-62 melanoma): 1.77 µM | TGI (UACC-62 melanoma): 7.52 µM | GI50 (SK-MEL-2 melanoma): 1.18 µM | TGI (SK-MEL-2 melanoma): 3.64 µM | GI50 (UO-31 renal): 3.44 µM | TGI (UO-31 renal): 10.9 µM | GI50 (NCI/ADR-RES ovarian): 3.73 µM | TGI (NCI/ADR-RES ovarian): 32 µM | GI50 (DU-145 prostate): 4.52 µM | TGI (DU-145 prostate): 11.3 µM | GI50 (HCT-116 colon): 1.85 µM | TGI (HCT-116 colon): 6.66 µM | GI50 (PC-3 prostate): 1.25 µM | TGI (PC-3 prostate): 5.93 µM | GI50 (SR leukemia): 2.35 µM | TGI (SR leukemia): 15 µM | GI50 (COLO 205 colon): 2.67 µM | TGI (COLO 205 colon): 8.36 µM | GI50 (SF-268 CNS): 3.69 µM | TGI (SF-268 CNS): 10.5 µM | GI50 (U251 CNS): 2.09 µM | TGI (U251 CNS): 8.39 µM | GI50 (T-47D breast): 2.61 µM | TGI (T-47D breast): 9.85 µM | GI50 (SK-MEL-5 melanoma): 2.2 µM | TGI (SK-MEL-5 melanoma): 8.16 µM | GI50 (OVCAR-8 ovarian): 1.95 µM | TGI (OVCAR-8 ovarian): 6.67 µM | GI50 (MOLT-4 leukemia): 1.77 µM | TGI (MOLT-4 leukemia): 12.7 µM | GI50 (ACHN renal): 1.59 µM | TGI (ACHN renal): 7.38 µM | GI50 (CAKI-1 renal): 2.04 µM | TGI (CAKI-1 renal): 10.9 µM | GI50 (TK-10 renal): 2.14 µM | TGI (TK-10 renal): 7.75 µM | GI50 (RXF 393 renal): 1.68 µM | TGI (RXF 393 renal): 6.66 µM | GI50 (CCRF-CEM leukemia): 0.655 µM | TGI (CCRF-CEM leukemia): 9.04 µM | GI50 (SN12C renal): 3.09 µM | TGI (SN12C renal): 9.86 µM | GI50 (NCI-H23 lung): 1.97 µM | TGI (NCI-H23 lung): 18.7 µM | GI50 (LOX IMVI melanoma): 2.82 µM | TGI (LOX IMVI melanoma): 15 µM | GI50 (MDA-MB-231 breast): 2.06 µM | TGI (MDA-MB-231 breast): 7.94 µM | GI50 (SF-539 CNS): 1.98 µM | TGI (SF-539 CNS): 9.91 µM | GI50 (EKVX NSCLC): 2.71 µM | TGI (EKVX NSCLC): 9.84 µM | GI50 (HOP-62 NSCLC): 5.62 µM | TGI (HOP-62 NSCLC): 11.8 µM | GI50 (SK-MEL-28 melanoma): 2.75 µM | TGI (SK-MEL-28 melanoma): 9.44 µM | GI50 (OVCAR-3 ovarian): 2.62 µM | TGI (OVCAR-3 ovarian): 8.9 µM | GI50 (SW-620 colon): 3.26 µM | TGI (SW-620 colon): 10.1 µM | GI50 (SF-295 CNS): 1.43 µM | TGI (SF-295 CNS): 7.24 µM | GI50 (HOP-92 NSCLC): 0.556 µM | TGI (HOP-92 NSCLC): 4.31 µM | GI50 (A498 renal): 2.65 µM | TGI (A498 renal): 9.51 µM | GI50 (A549 NSCLC): 2.11 µM | TGI (A549 NSCLC): 7.35 µM | GI50 (OVCAR-4 ovarian): 2.36 µM | TGI (OVCAR-4 ovarian): 8.18 µM | GI50 (M14 melanoma): 1.75 µM | TGI (M14 melanoma): 5.98 µM | GI50 (NCI-H522 lung): 1.36 µM | TGI (NCI-H522 lung): 6.31 µM
